The target in one test is EGFR del19/T790M/C797S (Homo sapiens, UniProt P00533, C797S/DEL746-750/T790M). Put plainly: Biochemical EGFR kinase assay (Lance Ultra TR-FRET), triple mutant del19/T790M/C797S. Here is the method:
(§1) Biochemical EGFR kinase assays were conducted using Lance Ultra time-resolved fluorescence resonance energy transfer (TR-FRET) technology from Perkin-Elmer. Compounds of the invention were initially diluted to 20 mM in 100% DMSO for storage and made into kinase buffer solution to create a compound concentration ranging from 0.003 μM and 10 μM.
(§2) Each kinase reactions were incubated at room temperature for 1 hour and then stopped by the addition of 4 μL of stop solution (10 mM EDTA). The specific Europium-labeled-anti-phosphopeptide antibody (PerkinElmer, AD0069) diluted in LANCE detection buffer was then added to a final concentration of 2 nM. After 60 minutes incubation at room temperature the LANCE signal was measured on an EnVision Multilabel Reader (Perkin-Elmer). Excitation wavelength was set at 320 nm and emission monitored at 615 nm (donor) and 665 nm (acceptor). The IC50 values were determined using GraphPad prism software (GraphPad Software, Inc., San Diego, CA, USA).
Background: TR-FRET usually uses a lanthanide donor and a delayed reading to cut background.

The next test addresses EGFR L858R/T790M/C797S (Homo sapiens, UniProt P00533, C797S/L858R/T790M). The test can be described thus: Biochemical EGFR kinase assay (Lance Ultra TR-FRET), triple mutant L858R/T790M/C797S. The protocol:
as §1, §2

The target in the next test is EGFR L858R/C797S (Homo sapiens, UniProt P00533, C797S/L858R). The test can be described thus: Biochemical EGFR kinase assay (Lance Ultra TR-FRET), double mutant L858R/C797S. Here is the method:
as §1, §2

The next test deals with EGFR wildtype (WT) (Homo sapiens, UniProt P00533). Put plainly: Biochemical EGFR kinase assay (Lance Ultra TR-FRET), wildtype. The protocol:
as §1, §2

[1] abbreviates: IC50 del19/T790M/C797S (nM) 100 μM ATP, 100 μM ATP.
Setting [2] is: Km ATP, read-out: IC50 del19/T790M/C797S (nM) Km ATP.
Setting [3] is: IC50 L858R/T790M/C797S (nM) 100 μM ATP, 100 μM ATP.
The mark [4] stands for this setting: Km ATP, read-out: IC50 L858R/T790M/C797S (nM) Km ATP.
[5] abbreviates: IC50 L858R/C797S (nM) 100 μM ATP, 100 μM ATP.
The mark [6] stands for this setting: Km ATP, read-out: IC50 L858R/C797S (nM) Km ATP.
[7] abbreviates: IC50 WT (nM) 100 μM ATP, 100 μM ATP.
Setting [8] is: Km ATP, read-out: IC50 WT (nM) Km ATP.

Where two headings read alike, the source gives them in different places.

Chain of EGFR wildtype (WT) (P00533 25-1210): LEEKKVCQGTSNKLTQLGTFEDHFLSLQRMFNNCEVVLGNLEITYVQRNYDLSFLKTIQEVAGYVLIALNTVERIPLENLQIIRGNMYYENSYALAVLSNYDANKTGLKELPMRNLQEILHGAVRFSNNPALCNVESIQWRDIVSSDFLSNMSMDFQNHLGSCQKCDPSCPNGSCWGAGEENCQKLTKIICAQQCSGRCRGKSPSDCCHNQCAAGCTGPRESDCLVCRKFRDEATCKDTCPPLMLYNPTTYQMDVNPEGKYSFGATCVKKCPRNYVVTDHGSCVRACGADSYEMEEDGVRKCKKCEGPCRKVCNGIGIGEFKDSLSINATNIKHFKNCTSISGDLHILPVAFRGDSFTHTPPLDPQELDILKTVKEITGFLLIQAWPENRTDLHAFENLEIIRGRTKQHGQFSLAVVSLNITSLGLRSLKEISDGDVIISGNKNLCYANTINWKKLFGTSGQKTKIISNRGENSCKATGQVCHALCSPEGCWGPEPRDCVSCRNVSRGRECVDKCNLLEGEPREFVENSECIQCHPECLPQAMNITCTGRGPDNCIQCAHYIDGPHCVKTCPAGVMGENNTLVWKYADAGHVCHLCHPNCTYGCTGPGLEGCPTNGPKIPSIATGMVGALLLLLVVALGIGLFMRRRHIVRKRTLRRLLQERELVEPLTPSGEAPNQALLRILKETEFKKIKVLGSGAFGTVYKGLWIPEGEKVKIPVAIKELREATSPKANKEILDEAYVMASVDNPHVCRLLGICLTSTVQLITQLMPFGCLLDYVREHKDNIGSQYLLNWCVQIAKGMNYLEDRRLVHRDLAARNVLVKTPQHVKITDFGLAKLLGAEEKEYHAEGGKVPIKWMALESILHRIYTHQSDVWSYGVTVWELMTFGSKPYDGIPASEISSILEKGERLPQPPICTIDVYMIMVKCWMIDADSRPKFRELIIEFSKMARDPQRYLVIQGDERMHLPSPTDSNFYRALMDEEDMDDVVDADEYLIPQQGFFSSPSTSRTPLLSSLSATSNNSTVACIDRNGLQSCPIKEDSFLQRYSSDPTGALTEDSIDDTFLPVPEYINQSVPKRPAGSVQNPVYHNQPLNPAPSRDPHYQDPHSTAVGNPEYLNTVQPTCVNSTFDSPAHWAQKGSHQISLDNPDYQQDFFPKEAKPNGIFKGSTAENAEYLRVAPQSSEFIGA
Chain of EGFR L858R/T790M/C797S (P00533 25-1210 T790M/C797S/L858R): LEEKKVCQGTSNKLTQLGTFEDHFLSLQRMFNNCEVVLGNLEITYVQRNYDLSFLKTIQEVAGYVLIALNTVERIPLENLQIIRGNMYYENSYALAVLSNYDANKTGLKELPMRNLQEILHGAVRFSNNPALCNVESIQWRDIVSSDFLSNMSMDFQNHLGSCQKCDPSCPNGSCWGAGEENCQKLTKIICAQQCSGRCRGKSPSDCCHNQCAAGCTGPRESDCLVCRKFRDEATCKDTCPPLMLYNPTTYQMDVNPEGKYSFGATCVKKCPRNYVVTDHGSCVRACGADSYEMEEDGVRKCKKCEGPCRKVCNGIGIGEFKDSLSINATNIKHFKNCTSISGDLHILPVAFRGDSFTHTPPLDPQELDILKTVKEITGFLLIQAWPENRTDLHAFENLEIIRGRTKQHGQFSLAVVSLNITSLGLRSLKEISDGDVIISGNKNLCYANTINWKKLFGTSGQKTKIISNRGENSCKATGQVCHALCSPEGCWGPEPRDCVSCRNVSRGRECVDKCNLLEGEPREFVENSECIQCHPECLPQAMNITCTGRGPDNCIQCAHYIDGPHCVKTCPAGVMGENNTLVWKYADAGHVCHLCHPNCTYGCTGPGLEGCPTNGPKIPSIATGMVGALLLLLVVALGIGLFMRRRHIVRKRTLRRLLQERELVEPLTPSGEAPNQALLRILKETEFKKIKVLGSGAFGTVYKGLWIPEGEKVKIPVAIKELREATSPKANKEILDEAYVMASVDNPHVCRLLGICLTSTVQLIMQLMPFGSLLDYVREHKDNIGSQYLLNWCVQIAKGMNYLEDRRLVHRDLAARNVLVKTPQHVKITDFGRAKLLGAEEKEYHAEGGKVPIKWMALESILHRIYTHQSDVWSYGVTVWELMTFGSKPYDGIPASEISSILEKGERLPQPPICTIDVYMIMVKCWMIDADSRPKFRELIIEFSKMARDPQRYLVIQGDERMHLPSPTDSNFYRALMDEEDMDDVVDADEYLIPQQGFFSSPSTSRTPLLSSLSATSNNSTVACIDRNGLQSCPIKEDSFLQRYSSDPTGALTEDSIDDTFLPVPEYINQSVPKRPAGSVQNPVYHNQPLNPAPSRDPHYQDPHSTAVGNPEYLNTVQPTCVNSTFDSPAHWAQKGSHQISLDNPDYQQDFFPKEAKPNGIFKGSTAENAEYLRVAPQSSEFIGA
Chain of EGFR L858R/C797S (P00533 25-1210 C797S/L858R): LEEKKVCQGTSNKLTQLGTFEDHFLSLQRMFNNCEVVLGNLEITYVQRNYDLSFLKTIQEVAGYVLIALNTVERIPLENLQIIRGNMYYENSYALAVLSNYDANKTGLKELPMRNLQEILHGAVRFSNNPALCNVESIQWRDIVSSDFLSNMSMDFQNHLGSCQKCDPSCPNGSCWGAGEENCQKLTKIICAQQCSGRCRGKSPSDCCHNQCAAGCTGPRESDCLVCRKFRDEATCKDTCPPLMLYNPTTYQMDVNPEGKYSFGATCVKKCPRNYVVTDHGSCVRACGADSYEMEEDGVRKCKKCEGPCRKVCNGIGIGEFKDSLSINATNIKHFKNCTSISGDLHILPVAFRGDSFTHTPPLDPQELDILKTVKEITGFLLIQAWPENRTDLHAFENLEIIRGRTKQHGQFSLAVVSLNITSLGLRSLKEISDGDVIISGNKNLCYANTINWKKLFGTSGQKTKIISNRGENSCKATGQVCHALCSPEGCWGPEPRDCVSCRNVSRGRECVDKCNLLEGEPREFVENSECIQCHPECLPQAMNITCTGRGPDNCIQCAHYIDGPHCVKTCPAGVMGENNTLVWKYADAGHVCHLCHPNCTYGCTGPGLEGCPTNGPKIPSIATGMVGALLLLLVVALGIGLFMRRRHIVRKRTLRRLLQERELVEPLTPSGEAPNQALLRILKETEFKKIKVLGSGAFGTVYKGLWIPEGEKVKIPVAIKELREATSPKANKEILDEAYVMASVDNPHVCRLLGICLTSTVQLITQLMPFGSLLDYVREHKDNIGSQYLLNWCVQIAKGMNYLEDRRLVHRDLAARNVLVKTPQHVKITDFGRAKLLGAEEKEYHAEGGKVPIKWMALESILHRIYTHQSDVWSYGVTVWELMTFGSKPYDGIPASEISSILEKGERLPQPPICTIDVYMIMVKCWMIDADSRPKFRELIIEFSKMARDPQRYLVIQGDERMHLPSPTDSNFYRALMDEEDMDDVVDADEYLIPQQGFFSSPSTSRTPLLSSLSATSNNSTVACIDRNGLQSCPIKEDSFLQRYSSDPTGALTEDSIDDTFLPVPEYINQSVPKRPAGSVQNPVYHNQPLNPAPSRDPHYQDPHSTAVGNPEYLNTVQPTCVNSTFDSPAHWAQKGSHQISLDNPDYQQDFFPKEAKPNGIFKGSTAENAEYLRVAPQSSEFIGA
Chain of EGFR del19/T790M/C797S (P00533 with tags, fused parts or gaps DEL746-750/T790M/C797S): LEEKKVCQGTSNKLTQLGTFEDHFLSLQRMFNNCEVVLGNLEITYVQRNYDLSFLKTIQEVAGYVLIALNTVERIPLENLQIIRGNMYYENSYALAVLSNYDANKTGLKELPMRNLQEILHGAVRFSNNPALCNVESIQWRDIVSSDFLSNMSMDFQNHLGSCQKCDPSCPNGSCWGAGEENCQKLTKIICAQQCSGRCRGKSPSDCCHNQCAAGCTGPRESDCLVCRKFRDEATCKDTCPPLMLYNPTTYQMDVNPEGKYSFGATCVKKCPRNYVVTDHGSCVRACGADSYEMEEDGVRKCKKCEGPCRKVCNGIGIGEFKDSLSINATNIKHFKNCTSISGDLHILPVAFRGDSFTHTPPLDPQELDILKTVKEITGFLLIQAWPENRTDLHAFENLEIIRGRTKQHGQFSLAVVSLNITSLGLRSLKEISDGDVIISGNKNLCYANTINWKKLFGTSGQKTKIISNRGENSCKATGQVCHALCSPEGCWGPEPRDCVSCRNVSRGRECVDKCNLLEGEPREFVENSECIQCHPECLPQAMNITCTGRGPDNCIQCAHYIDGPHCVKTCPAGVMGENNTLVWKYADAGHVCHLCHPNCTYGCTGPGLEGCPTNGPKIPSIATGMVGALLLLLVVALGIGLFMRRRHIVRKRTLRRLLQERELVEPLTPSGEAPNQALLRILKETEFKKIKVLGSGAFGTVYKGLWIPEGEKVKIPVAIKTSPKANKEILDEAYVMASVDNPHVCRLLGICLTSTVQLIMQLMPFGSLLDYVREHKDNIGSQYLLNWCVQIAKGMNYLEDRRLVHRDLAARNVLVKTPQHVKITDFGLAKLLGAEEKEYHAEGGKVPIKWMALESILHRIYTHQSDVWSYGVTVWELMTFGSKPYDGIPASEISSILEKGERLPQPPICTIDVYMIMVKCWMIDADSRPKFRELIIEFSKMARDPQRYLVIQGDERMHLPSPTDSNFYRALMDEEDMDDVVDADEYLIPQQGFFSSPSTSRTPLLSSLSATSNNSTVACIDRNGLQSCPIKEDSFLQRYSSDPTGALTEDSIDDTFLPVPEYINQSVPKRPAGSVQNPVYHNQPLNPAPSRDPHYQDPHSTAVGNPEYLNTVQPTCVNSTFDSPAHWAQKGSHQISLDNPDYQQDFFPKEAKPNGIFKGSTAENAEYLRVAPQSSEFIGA

For the molecule `CC1(O)CCC(Oc2cc(Nc3ccnc(-c4cnn(S(=O)(=O)C5CC5)c4)n3)ncc2-c2cnn(C(F)F)c2)CC1` (centres unmarked) [Example 73, 4-((2-((2-(1-(Cyclopropylsulfonyl)-1H-pyrazol-4-yl)pyrimidin-4-yl)amino)-5-(1-(difluoromethyl)-1H-pyrazol-4-yl)pyridin-4-yl)oxy)-1-methylcyclohexan-1-ol], the IC50 against EGFR del19/T790M/C797S (setting [1]) came out at 0.4 nM; at EGFR del19/T790M/C797S (setting [2]), 0.5 nM; against EGFR L858R/T790M/C797S (setting [3]), 1.1 nM; on EGFR L858R/T790M/C797S (setting [4]), 0.2 nM; against EGFR L858R/C797S (setting [5]) it was 41.3 nM; at EGFR L858R/C797S (setting [6]), 2.9 nM. The IC50 is above 10000 nM at EGFR wildtype (WT) (setting [7]) and 65.3 nM on EGFR wildtype (WT) (setting [8]).

On to `CN(C)C(=O)C[C@H]1CC[C@@H](Nc2cc(Nc3ccnc(-c4cnn(S(=O)(=O)C5CC5)c4)n3)ncc2-c2cc(C(F)(F)F)n(C)n2)CC1` [Example 258, 2-((1s,4s)-4-((2-((2-(1-(Cyclopropylsulfonyl)-1H-pyrazol-4-yl)pyrimidin-4-yl)amino)-5-(1-methyl-5-(trifluoromethyl)-1H-pyrazol-3-yl)pyridin-4-yl)amino)cyclohexyl)-N,N-dimethylacetamide], for which the IC50 against EGFR del19/T790M/C797S (setting [1]) is 5.1 nM; at EGFR del19/T790M/C797S (setting [2]), 2.5 nM; against EGFR L858R/T790M/C797S (setting [3]) it was 2.8 nM; at EGFR L858R/T790M/C797S (setting [4]), 1.4 nM; on EGFR L858R/C797S (setting [5]), 26.7 nM; at EGFR wildtype (WT) (setting [7]) it was 2070 nM. Besides, the IC50 on EGFR wildtype (WT) (setting [8]) is 9 nM.

Take `C[C@]1(O)CC[C@@H](Nc2cc(Nc3ccnc(-c4cnn(S(=O)(=O)C5CC5)c4)n3)ncc2-c2ccn(CCC(F)(F)F)n2)CC1` [Example 295, (1s,4s)-4-((2-((2-(1-(Cyclopropylsulfonyl)-1H-pyrazol-4-yl)pyrimidin-4-yl)amino)-5-(1-(3,3,3-trifluoropropyl)-1H-pyrazol-3-yl)pyridin-4-yl)amino)-1-methylcyclohexan-1-ol]: the IC50 was 0.7 nM at EGFR del19/T790M/C797S (setting [2]), 0.6 nM on EGFR L858R/T790M/C797S (setting [4]), 0.3 nM on EGFR L858R/C797S (setting [6]) and 3.8 nM on EGFR wildtype (WT) (setting [8]).

For `Cn1cc(-c2cnc(Nc3ccnc(-c4cnn(S(=O)(=O)C5CC5)c4)n3)cc2C#CC(C)(C)O)cn1` [Example 4, 4-(2-((2-(1-(Cyclopropylsulfonyl)-1H-pyrazol-4-yl)pyrimidin-4-yl)amino)-5-(1-methyl-1H-pyrazol-4-yl)pyridin-4-yl)-2-methylbut-3-yn-2-ol], the IC50 at EGFR del19/T790M/C797S (setting [2]) was determined as 3.2 nM; at EGFR L858R/T790M/C797S (setting [4]) it was 0.8 nM; on EGFR L858R/C797S (setting [6]), 75.9 nM; on EGFR wildtype (WT) (setting [8]) it was 214 nM.

As for `C[C@]1(O)CC[C@@H](Nc2cc(Nc3ccnc(-c4cnn(S(=O)(=O)C5CC5)c4)n3)ncc2-c2csc(C(F)(F)F)n2)CC1` [Example 51, (1s,4s)-4-((2-((2-(1-(Cyclopropylsulfonyl)-1H-pyrazol-4-yl)pyrimidin-4-yl)amino)-5-(2-(trifluoromethyl)thiazol-4-yl)pyridin-4-yl)amino)-1-methylcyclohexan-1-ol], the IC50 against EGFR del19/T790M/C797S (setting [1]) is 2.4 nM; on EGFR L858R/C797S (setting [5]), 7 nM; against EGFR wildtype (WT) (setting [7]), above 10000 nM.

`C[C@]1(O)CC[C@@H](Nc2cc(Nc3ccnc(-c4cnn(S(=O)(=O)C5CCCC5)c4)n3)ncc2-c2ccn(C(F)F)n2)CC1` [Example 115, (1s,4s)-4-((2-((2-(1-(Cyclopentylsulfonyl)-1H-pyrazol-4-yl)pyrimidin-4-yl)amino)-5-(1-(difluoromethyl)-1H-pyrazol-3-yl)pyridin-4-yl)amino)-1-methylcyclohexan-1-ol]: the IC50 came to 1.9 nM on EGFR del19/T790M/C797S (setting [2]), 1.3 nM at EGFR L858R/T790M/C797S (setting [4]) and 20.2 nM at EGFR wildtype (WT) (setting [8]).

The record behind these values is patent publication US12258327B2, “5-membered heteroaryl-containing aminopyridine compounds as EGFR inhibitors” (YUHAN CORPORATION, priority 2021, dated 2025).
